We go through 22 molecules from patent US20220162191A1, “SMALL MOLECULE MODULATORS OF IL-17” (LEO PHARMA A/S, priority 2019, published 2022).

The target of the assay is T1, human IL-17AA (Homo sapiens, UniProt Q16552).
T1 construct: host or cells: HEK (human embryonic kidney) cells
T1 sequence (Q16552 24-155) 1: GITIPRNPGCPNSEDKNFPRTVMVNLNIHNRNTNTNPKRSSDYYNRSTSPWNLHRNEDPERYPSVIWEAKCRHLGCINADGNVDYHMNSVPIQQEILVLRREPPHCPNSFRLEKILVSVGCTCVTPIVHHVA
T1 sequence (Q16552 24-155) 2: T1 sequence (Q16552 24-155) 1
Nature of the assay: IL-8 release assay in human epithelial keratinocytes adult (HEKa). The class given is cell-based. Conditions: 3 ng/ml human IL-17AA + 10 ng/ml human TNFalpha, 68-72 h, IL-8 by HTRF, read-out: Rel EC50 L-8 release assay. The gist of the method:
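Adult human keratinocytes in Epilife with HKGS minus hydrocortisone, treated with compound then stimulated with final 3 ng/ml HEK-derived human IL-17AA plus 10 ng/ml TNF-alpha for 68–72 h at 37 °C; TNF-alpha alone defines 100% inhibition. Secreted IL-8 by HTRF; relative IC50 and Emax from four-parameter fits.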
(In TR-FRET formats the signal depends on donor and acceptor labels being close together.)

What is called EC50 is the concentration that produces a half-maximal response.

As for `Cc1ncn(C)c1-c1ccc(NC(=O)[C@@H](NC(=O)c2ccnn2C)[C@@H]2CCCc3ccc(-c4cccc(C(C)(C)N)c4)cc32)cc1` [Example 50, N-[(1S)-1-[(1R)-7-[3-(1-amino-1-methyl-ethyl)phenyl]tetralin-1-yl]-2-[4-(3,5-dimethylimidazol-4-yl)anilino]-2-oxo-ethyl]-2-methyl-pyrazole-3-carboxamide], the half-maximal effective concentration (EC50) was in the range of 100 to 1000 nM. The value for `CC(C)n1cc(-c2ccc(Cl)c(C[C@H](NC(=O)C(C)(C)F)C(=O)Nc3ccc(-c4nncn4C)cc3)c2)ccc1=O` [Example 282, N-[(1S)-1-[[2-chloro-5-(1-isopropyl-6-oxo-3-pyridyl)phenyl]methyl]-2-[4-(4-methyl-1,2,4-triazol-3-yl)anilino]-2-oxo-ethyl]-2-fluoro-2-methyl-propanamide] was above 1000 nM; that for `Cc1n[nH]c(C)c1-c1ccc(NC(=O)[C@@H](NC(=O)c2ccnn2C)[C@@H]2CCCc3ccc(-c4ccc(=O)n(C(C)C)c4)cc32)cc1O` [Example 33, N-[(1S)-2-[4-(3,5-dimethyl-1H-pyrazol-4-yl)-3-hydroxy-anilino]-1-[(1R)-7-(1-isopropyl-6-oxo-3-pyridyl)tetralin-1-yl]-2-oxo-ethyl]-2-methyl-pyrazole-3-carboxamide] was below 100 nM; that for `Cc1n[nH]c(C)c1-c1ccc(NC(=O)[C@@H](NC(=O)c2ccnn2C)[C@@H]2CCCc3ccc(-c4ccc5c(c4)CCN(C)C5)cc32)cc1` [Example 36, N-[(1S)-2-[4-(3,5-dimethyl-1H-pyrazol-4-yl)anilino]-1-[(1R)-7-(2-methyl-3,4-dihydro-1H-isoquinolin-6-yl)tetralin-1-yl]-2-oxo-ethyl]-2-methyl-pyrazole-3-carboxamide] was below 100 nM. The value for `Cc1nccn1-c1ccc(NC(=O)[C@@H](NC(=O)C2(F)CC2)[C@@H]2CCCc3ccc(-c4ccnc(N5C[C@@H]6C[C@H]5CO6)c4)cc32)cc1` [Example 400, 1-fluoro-N-[(1S)-2-[4-(2-methylimidazol-1-yl)anilino]-1-[(1R)-7-[2-[(1S,4S)-2-oxa-5-azabicyclo[2.2.1]heptan-5-yl]-4-pyridyl]tetralin-1-yl]-2-oxo-ethyl]cyclopropanecarboxamide] was 100 to 1000 nM; that for `Cc1n[nH]c(C)c1-c1ccc(NC(=O)[C@@H](NC(=O)c2ccnn2C)[C@@H]2CCc3ccc(-c4cnn(C5CCC5)c4)cc32)cc1` [Example 5, N-[(1S)-1-[(1R)-6-(1-cyclobutylpyrazol-4-yl)indan-1-yl]-2-[4-(3,5-dimethyl-1H-pyrazol-4-yl)anilino]-2-oxo-ethyl]-2-methyl-pyrazole-3-carboxamide] was below 100 nM.

As to `CCc1cccc(-c2ccc(Cl)c(CC(NC(=O)c3ccnn3C)C(=O)Nc3ccc(-c4nncn4C)cc3)c2)c1` (stereo not shown) [Example 108, N-[1-[[2-chloro-5-(3-ethylphenyl)phenyl]methyl]-2-[4-(4-methyl-1,2,4-triazol-3-yl)anilino]-2-oxo-ethyl]-2-methyl-pyrazole-3-carboxamide], the EC50 lay in the range of 100 to 1000 nM. For `Cc1n[nH]c(C)c1-c1ccc(NC(=O)[C@@H](NC(=O)C2(F)CC2)[C@@H]2CCc3ccc(-c4cccc(N5C[C@@H]6C[C@H]5CN6)c4)cc32)cc1` [Example 373, N-[(1S)-1-[(1R)-6-[3-[(1S,4S)-2,5-diazabicyclo[2.2.1]heptan-2-yl]phenyl]indan-1-yl]-2-[4-(3,5-dimethyl-1H-pyrazol-4-yl)anilino]-2-oxo-ethyl]-1-fluoro-cyclopropanecarboxamide], the EC50 was below 100 nM. On to `C[C@H]1CNCCN1c1cc(-c2ccc(Cl)c(C[C@H](NC(=O)c3ccnn3C)C(=O)Nc3ccc(-c4cncn4C)cc3)c2)ccn1` [Example 208, N-[(1S)-1-[[2-chloro-5-[2-[(2S)-2-methylpiperazin-1-yl]-4-pyridyl]phenyl]methyl]-2-[4-(3-methylimidazol-4-yl)anilino]-2-oxo-ethyl]-2-methyl-pyrazole-3-carboxamide], for which the EC50 was in the range of 100 to 1000 nM.

For `Cc1n[nH]c(C)c1-c1ccc(NC(=O)[C@@H](NC(=O)C2(F)CC2)[C@@H]2CCc3ccc(-c4cc(N5C[C@@H]6C[C@H]5CO6)ccn4)cc32)cc1` [Example 368, N-[(1S)-2-[4-(3,5-dimethyl-1H-pyrazol-4-yl)anilino]-1-[(1R)-6-[4-[(1S,4S)-2-oxa-5-azabicyclo[2.2.1]heptan-5-yl]-2-pyridyl]indan-1-yl]-2-oxo-ethyl]-1-fluoro-cyclopropanecarboxamide], the EC50 fell in the range of 100 to 1000 nM. In the case of `Cc1n[nH]c(C)c1-c1ccc(NC(=O)[C@H](Cc2cc(-c3ccnc(N4C[C@@H]5C[C@H]4CN5)c3)ccc2Cl)NC(=O)C2(F)CC2)cc1` [Example 223, N-[(1S)-1-[[2-chloro-5-[2-[(1S,4S)-2,5-diazabicyclo[2.2.1]heptan-2-yl]-4-pyridyl]phenyl]methyl]-2-[4-(3,5-dimethyl-1H-pyrazol-4-yl)anilino]-2-oxo-ethyl]-1-fluoro-cyclopropanecarboxamide], the EC50 was below 100 nM.

For the molecule `CC(C)OC(=O)N[C@@H](Cc1cc(-c2ccc(=O)n(C(C)C)c2)ccc1Cl)C(=O)Nc1ccc(-c2nncn2C)cc1` [Example 99, isopropyl N-[(1S)-1-[[2-chloro-5-(1-isopropyl-6-oxo-3-pyridyl)phenyl]methyl]-2-[4-(4-methyl-1,2,4-triazol-3-yl)anilino]-2-oxo-ethyl]carbamate], the concentration for a half-maximal effect (EC50) is above 1000 nM. The value for `CC(C)n1cc(-c2ccc(Cl)c(C[C@H](NC(=O)C3(C(F)(F)F)CC3)C(=O)Nc3ccc(-c4nncn4C)cc3)c2)ccc1=O` [Example 117, N-[(1S)-1-[[2-chloro-5-(1-isopropyl-6-oxo-3-pyridyl)phenyl]methyl]-2-[4-(4-methyl-1,2,4-triazol-3-yl)anilino]-2-oxo-ethyl]-1-(trifluoromethyl) cyclopropanecarboxamide] was above 1000 nM. With `Cc1cnn(C)c1-c1ccc(NC(=O)[C@H](Cc2cc(-c3ccc(=O)n(C(C)C)c3)ccc2Cl)NC(=O)CC2CCC2)cc1` [Example 335, (2S)-3-[2-chloro-5-(1-isopropyl-6-oxo-3-pyridyl)phenyl]-2-[(2-cyclobutylacetyl)amino]-N-[4-(2,4-dimethylpyrazol-3-yl)phenyl]propanamide], the EC50 was 100 to 1000 nM.

Take `Cc1ncn(C)c1-c1ccc(NC(=O)[C@H](Cc2cc(-c3ccnc(N4CCN(C)CC4)c3)ccc2Cl)NC(=O)OC2CC2)cc1` [Example 211, cyclopropyl N-[(1S)-1-[[2-chloro-5-[2-(4-methylpiperazin-1-yl)-4-pyridyl]phenyl]methyl]-2-[4-(3,5-dimethylimidazol-4-yl)anilino]-2-oxo-ethyl]carbamate]: the EC50 lay within 100 to 1000 nM. With `Cc1ncn(C)c1-c1ccc(NC(=O)[C@@H](NC(=O)c2ccnn2C)[C@@H]2CCCc3ccc(-c4ccc5c(c4)CNC5)cc32)cc1` [Example 42, N-[(1S)-2-[4-(3,5-dimethylimidazol-4-yl)anilino]-1-[(1R)-7-isoindolin-5-yltetralin-1-yl]-2-oxo-ethyl]-2-methyl-pyrazole-3-carboxamide] the figure was 100 to 1000 nM. `Cc1cnn(C)c1-c1ccc(NC(=O)[C@@H](NC(=O)C2(F)CC2)[C@@H]2CCc3ccc(-c4cc(N5C[C@@H]6C[C@H]5CO6)cnn4)cc32)cc1` [Example 383, N-[(1S)-2-[4-(2,4-dimethylpyrazol-3-yl)anilino]-1-[(1R)-6-[5-[(1S,4S)-2-oxa-5-azabicyclo[2.2.1]heptan-5-yl]pyridazin-3-yl]indan-1-yl]-2-oxo-ethyl]-1-fluoro-cyclopropanecarboxamide]: the EC50 was above 1000 nM.

On to `Cn1cncc1-c1ccc(NC(=O)[C@H](Cc2cc(-c3cccc([C@H]4CNCCO4)c3)ccc2Cl)NC(=O)c2ccnn2C)cc1` [Example 220, N-[(1S)-1-[[2-chloro-5-[3-[(2S)-morpholin-2-yl]phenyl]phenyl]methyl]-2-[4-(3-methylimidazol-4-yl)anilino]-2-oxo-ethyl]-2-methyl-pyrazole-3-carboxamide], for which the EC50 is 100 to 1000 nM. For `CC(C)n1cc(-c2ccc(Cl)c(C[C@H](NC(=O)C3(F)CC3)C(=O)Nc3ccc(-c4nncn4C)cc3)c2)ccc1=O` [Example 92, N-[(1S)-1-[[2-chloro-5-(1-isopropyl-6-oxo-3-pyridyl)phenyl]methyl]-2-[4-(4-methyl-1,2,4-triazol-3-yl)anilino]-2-oxo-ethyl]-1-fluoro-cyclopropanecarboxamide], the EC50 was above 1000 nM. The value for `Cc1n[nH]c(C)c1-c1ccc(NC(=O)[C@H](Cc2cc(-c3ccc(CN4C[C@H]5C[C@@H]4CO5)cc3)ccc2Cl)NC(=O)C2(F)CC2)cc1` [Example 228, N-[(1S)-1-[[2-chloro-5-[4-[[(1R,4R)-2-oxa-5-azabicyclo[2.2.1]heptan-5-yl]methyl]phenyl]phenyl]methyl]-2-[4-(3,5-dimethyl-1H-pyrazol-4-yl)anilino]-2-oxo-ethyl]-1-fluoro-cyclopropanecarboxamide] was 100 to 1000 nM; that for `Cn1cnnc1-c1ccc(NC(=O)C(Cc2cc(-c3ccc(O)c(C(=O)N4CCOCC4)c3)ccc2Cl)NC(=O)c2ccnn2C)cc1` (stereo not shown) [Example 296, N-[1-[[2-chloro-5-[4-hydroxy-3-(morpholine-4-carbonyl)phenyl]phenyl]methyl]-2-[4-(4-methyl-1,2,4-triazol-3-yl)anilino]-2-oxo-ethyl]-2-methyl-pyrazole-3-carboxamide] was above 1000 nM.

For `Cc1cc(-c2ccc(Cl)c(CC(NC(=O)c3ccnn3C)C(=O)Nc3ccc(-c4nncn4C)cc3)c2)ccc1C#N` (stereo not shown) [Example 309, N-[1-[[2-chloro-5-(4-cyano-3-methyl-phenyl)phenyl]methyl]-2-[4-(4-methyl-1,2,4-triazol-3-yl)anilino]-2-oxo-ethyl]-2-methyl-pyrazole-3-carboxamide], the concentration for a half-maximal effect (EC50) was above 1000 nM.
